“Also recorded” adds a separate entry of the source. Like-named read-outs stand apart in the source and are kept apart here.
Tests used:
[1] = test system: HCC-827 PTEN^KO cells; type: cell-based, human
[2] = test system: PC9-PIK3CAm cells; experiment: Clonogenic assay; type: cell-based, human; details: osimertinib 160 nM, 8 days, crystal violet
Text: Cells were stained with Crystal violet at the end of the treatment (8 days) and cell density (% surface) quantified by ImageJ.

[3] = test system: p-S6 in PC9 PTEN^KO cells; experiment: Intracellular changes by WB analysis; type: cell-based, human; details: treated for 3 weeks with osimertinib 160 nM
[4] = test system: P-EGFR, MAPK signalling, P-AKT and P-S6 in PC9-PIK3CAm cells; experiment: Intracellular changes by WB analysis; type: cell-based, human; details: 4 h
[5] = test system: PC9 PIK3CA^H1047R cells; details: osimertinib alone
[6] = test system: PIK3CA H1047R and PIK3CA E453K-positive cells; experiment: Osimertinib selection of CRISPR knock-in cell pools, DNA sequencing; type: cell-based, human; details: osimertinib (100 nM) for 3 weeks; NGS and SANGER sequencing
Text: As the efficiency of knock-ins using this technology is usually low, only a small proportion of cells was expected to be genetically modified, thus mimicking the emergence of a co-occurring resistance mutation in a tumour.

[7] = test system: HCC-827 PTEN^KO xenograft; details: mouse
Experimental: (§1) e) PC9 PTEN-KO and HCC827 PTEN-KO cell lines were cultured in RPMI1640 supplemented with 10% FCS and cultured in a humidified incubator with 5% CO2 at 37° C. PC9 PTEN-KO and HCC827 PTEN-KO xenografts were established by subcutaneous implantation of 5×10^6, cells per animal, in 100 μL of cell suspension including 50% matrigel, into the flank of female NOD/SCID and nude mice respectively. All mice were older than 6 weeks at the time of cell implant. Tumour growth was monitored twice weekly by bilateral calliper measurements and tumour volume calculated using the formula TV (mm3)=[length (mm)×width (mm)2]×0.5, where the length and the width are the longest and the shortest diameters of the tumour.

[8] = test system: PC9 PTEN^KO cells; experiment: Clonogenic assay (long term); type: cell-based, human; details: 160 nM osimertinib
[9] = test system: PC9 PTEN^KO xenograft; experiment: Xenograft model, tumour volume; type: in vivo, NOD/SCID mice
Experimental: as §1

C=CC(=O)Nc1cc(Nc2nccc(-c3cn(C)c4ccccc34)n2)c(OC)cc1N(C)CCN(C)C [osimertinib, N-(2-{2-dimethylaminoethyl-methylamino}-4-methoxy-5-{[4-(1-methylindol-3-yl)pyrimidin-2-yl]amino}phenyl)prop-2-enamide]
clonogenic growth: resistance to osimertinib compared to parental cells [1]: resulted in osimertinib resistance; also recorded: develop resistance | cell density (% surface) higher than parental HCC-827 ([1]; 160 nM osimertinib, after 3 weeks): 20 X | clonogenic growth (cell density): resistance to osimertinib compared to parental PC9 [2]: developed resistance | p-S6 levels (western blot) [3]: persistent p-S6 levels | levels of P-AKT and P-S6 (western blot) ([4]; 160 nM osimertinib alone, PC9-PIK3CAm cells): refractory | P-EGFR levels and MAPK signalling (western blot) ([4]; 160 nM osimertinib, parental and PC9-PIK3CAm cells): downregulation of P-EGFR levels and MAPK signalling | osimertinib-induced apoptotic response (caspase 3/7 activation) compared to parental PC9 [5]: diminished apoptotic response | osimertinib-induced apoptotic response (caspase 3/7 activation) compared to parental PC9 ([5]; listed as Osimertinib): Diminished apoptotic response | outgrowth of PIK3CA-mutant cells under osimertinib selection [6]: conferred resistance | degree of resistance to Osimertinib in vivo [7]: at best very modest | cell density higher than parental PC9 cells [8]: 2 × | clonogenic growth: resistance to osimertinib compared to parental cells ([8]; 3 or 5 weeks): milder resistance phenotype; also recorded: develop resistance | degree of resistance to Osimertinib in vivo [9]: at best very modest

— patent US20250205233A1, “EPIDERMAL GROWTH FACTOR RECEPTOR (EGFR) TYROSINE KINASE INHIBITORS IN COMBINATION WITH AN AKT INHIBITOR FOR THE TREATMENT OF CANCER” (AstraZeneca AB, priority 2022, published 2025)
